The source of these data is patent US20240391900A1, “RIP1 KINASE INHIBITOR AND USE THEREOF” (SIRONAX (BEIJING) CO., LTD., priority 2021, published 2024).

A value given as a limit tells only on which side of the number the result lay.

This test concerns HT-29 human colon cancer cells. In words: In vitro biological activity assay: inhibition of TNFα/SmacM/Z_VAD FMK-induced programmed necrosis, CellTiter-Glo viability. The format is cell-based. The settings on record: HT-29 cells, necrosis induced with TNF-α 100 ng/mL, SmacM 100 nM, Z_VAD-FMK 10 μM, overnight, cell viability by chemiluminescence. The protocol:
In order to verify the inhibitory effect of the compounds of the present disclosure on programmed necrosis at the cellular level, a type of cells closely related to the RIP1 pathway, namely HT-29 human colon cancer cells, were selected. The used activation mode is a combination of tumor necrosis factor (TNFα), cysteine aspartate activator mimic (SmacM) and pan-caspase inhibitor Z_VAD FMK, and the cell viability was calculated by detecting chemiluminescence values, thus obtaining the biological activity of the compound inhibiting the programmed necrosis of cells.
Cell line: HT-29 (ATCC® HTB-38™)
• 2.1. The Growth Status of HT-29 Cells was Regularly Checked to Ensure their Normal Growth. • 2.2. McCOY's 5A culture medium containing 10% FBS was preheated in a 37° C. water bath for 30 minutes. When the culture medium was ready for use, the cell passage and inoculation was performed in a Class II safety cabinet with aseptic technique. • 2.3. In a T75 culture flask, when the growth density of cells reached the abundance of approximately 80%, the culture medium was aspirated and cells were washed twice with pre-warmed PBS. • 2.4. 2-3 mL of trypsin (Gibco, catalog number 25200-056) was added and the T75 culture flask was transferred to a 37° C. incubator. • 2.5. After 3-5 minutes, the side of the culture flask was tapped and examined under a microscope for detachment of the cells to the flask. If necessary, the cells were placed back into the incubator to wait for another 5-10 minutes until 85% of the cells were detached from each other. • 2.6. 6-9 mL of complete cell culture medium was quickly added to terminate the trypsin reaction, and then the cells were transferred to a sterile 15 mL centrifuge tube. The cells were pelleted by centrifugation at 300 g for 5-7 minutes in a centrifuge, and then the supernatant was decanted. • 2.7. The cells were resuspended in 10 mL of fresh cell culture medium and the cells were counted by using a hemocytometer. • 2.8. 3,000 cells contained in 100 μL were inoculated into each well of a sterile 96-well cell culture plate (Corning 3903) and cultured overnight at 37° C. under 5% CO2.
• 3.1. All batches of compounds were dissolved in dimethyl sulfoxide (DMSO) to prepare a 20 mM stock. • 3.2. 3 μL of 20 mM stock of each compound was added to 27 μL of DMSO and mixed thoroughly, and then diluted at a dilution ratio of […] (20 μL compound+40 μL DMSO) until the 10-12 points ended. After the compounds were diluted, they were set aside for use. • 3.3. The cell culture plate was taken out from the incubator, washed once with PBS, and replaced with a fresh culture medium free of serum. A mixture of TNF-α (100 ng/mL), SMAC mimic (SmacM, 100 nM) and Z_VAD-FMK (10 μM) was added to induce the programmed necrosis in HT-29 cells. • 3.4. The compound dilution plate was prepared, 0.5 μL of the diluted compound was added to the corresponding 96-well plate, and mixed gently. Two duplicate wells were prepared for each compound. • 3.5. The treated 96-well plate to which the compounds had been added was placed back into the 37° C. incubator containing 5% CO2 and incubated overnight.
The luminescence cell viability detection kit was used to calculate the activity of the compound by measuring the ATP content in viable cells. • 4.1. The CellTiter-Glo® buffer and dry powdered substrate were equilibrated to room temperature before use. • 4.2. The CellTiter-Glo® substrate was resuspended with Cell Titer-Glo® buffer, then homogeneously mixed by gently vortexing. • 4.3. The cell culture plate was taken out and equilibrated at room temperature for 10 minutes (usually not suitable if more than 30 minutes). • 4.4. 20 μL of enzyme/substrate mixture was added into the 96-well assay plate with a multi-channel pipettor. • 4.5. The 96-well assay plate was placed on a shaker and the content was mixed for 2-3 minutes to promote the cell lysis. • 4.6. […]
On to `C(#Cc1cnc2cccnn12)c1cc(-n2cc3c(n2)C(c2ccccc2)CC3)ncn1` (stereo not drawn) [Compound 8, 3-((6-(6-phenyl-5,6-dihydrocyclopenta[c]pyrazol-2 (4H)-yl)pyrimidine-4-yl)ethynyl)imidazo[1,2-b]pyridazine], for which the EC50 (commonly the midpoint of the concentration-response curve) lay within 100 to 1000 nM.

On to `Oc1cnc(C#Cc2cncc(-n3cc4c(n3)C(c3ccccc3)CC4)c2)cn1` (stereo not drawn) [Compound 12, 5-((5-(6-phenyl-5,6-dihydrocyclopenta[c]pyrazol-2 (4H)-yl)pyridin-3-yl)ethynyl)pyrazine-2-ol], for which the EC50 is greater than 1000 nM.

Consider `Nc1ncc(C#Cc2cncc(-n3cc4c(n3)[C@@H](c3ccccc3)CC4)c2)cn1` [Compound 13, (R)-5-((5-(6-phenyl-5,6-dihydrocyclopenta[c]pyrazol-2 (4H)-yl)pyridin-3-yl)ethynyl)pyrimidin-2-amine], for which the EC50 was no more than 100 nM.

With `Nc1ccc(C#Cc2cncc(-n3cc4c(n3)C(c3ccccc3)CC4)c2)nn1` (stereo not drawn) [Compound 17, 6-((5-(6-phenyl-5,6-dihydrocyclopenta[c]pyrazol-2 (4H)-yl)pyridin-3-yl)ethynyl)pyridazine-3-amine], the EC50 was no more than 100 nM.

Consider `Nc1cnc(C#Cc2cncc(-n3cc4c(n3)C(c3ccccc3)CC4)c2)cn1` (stereo not drawn) [Compound 18, 5-((5-(6-phenyl-5,6-dihydrocyclopenta[c]pyrazol-2 (4H)-yl)pyridin-3-yl)ethynyl)pyrazine-2-amine], for which the EC50 is no more than 100 nM.

For the compound `Nc1ncc(C#Cc2cncc(-n3cc4c(n3)C(c3cncc(F)c3)CC4)c2)cn1` (stereo not drawn) [Compound 19, 5-((5-(6-(5-fluoropyridin-3-yl)-5,6-dihydrocyclopenta[c]pyrazol-2 (4H)-yl)pyridin-3-yl)ethynyl)pyrimidin-2-amine], the EC50 was no more than 100 nM.

Turning to `N#Cc1cc(F)cc(C2CCc3cn(-c4cncc(C#Cc5cnc(N)nc5)c4)nc32)c1` (stereo not drawn) [Compound 20, 3-(2-(5-((2-aminopyrimidin-5-yl)ethynyl)pyridin-3-yl)-2,4,5,6-tetrahydrocyclopenta[c]pyrazol-6-yl)-5-fluorobenzonitrile], the EC50 was no more than 100 nM.

For the compound `Cn1cc(C#Cc2cncc(-n3cc4c(n3)[C@H](c3ccccc3)CC4)c2)cnc1=O` [Compound 21, (S)-1-methyl-5-((5-(6-phenyl-5,6-dihydrocyclopenta[c]pyrazol-2 (4H)-yl)pyridin-3-yl)ethynyl)pyrimidine-2 (1H)-one], the concentration giving a half-maximal response (EC50) lay in the range of 100 to 1000 nM.

Take `Cc1cnn(C)c1C#Cc1cccc(-n2cc3c(n2)C(c2ccccc2)CC3)c1` (stereo not drawn) [Compound 22, 2-(3-((1,4-dimethyl-1H-pyrazole-5-yl)ethynyl)phenyl)-6-phenyl-2,4,5,6-tetrahydrocyclopenta[c]pyrazole]: the EC50 was no more than 100 nM.

Consider `Cn1nccc1C#Cc1cccc(-n2cc3c(n2)C(c2ccccc2)CC3)c1` (stereo not drawn) [Compound 23, 2-(3-((1-methyl-1H-pyrazole-5-yl)ethynyl)phenyl)-6-phenyl-2,4,5,6-tetrahydrocyclopenta[c]pyrazole], for which the EC50 is no more than 100 nM.

`Cn1cc(C#Cc2cccc(-n3cc4c(n3)C(c3ccccc3)CC4)c2)cn1` (stereo not drawn) [Compound 25, 2-(3-((1-methyl-iH-pyrazole-4-yl)ethynyl)phenyl)-6-phenyl-2,4,5,6-tetrahydrocyclopenta[c]pyrazole]: the EC50 was no more than 100 nM.

As for `C(#Cc1cnc2cccnn12)c1cncc(-n2cc3c(n2)C(c2ccccc2)CC3)n1` (stereo not drawn) [Compound 26, 3-((6-(6-phenyl-5,6-dihydrocyclopenta[c]pyrazol-2 (4H)-yl)pyrazin-2-yl)ethynyl)imidazo[1,2-b]pyridazine], the EC50 is no more than 100 nM.

For the compound `C(#Cc1cnc2cccnn12)c1ccnc(-n2cc3c(n2)C(c2ccccc2)CC3)c1` (stereo not drawn) [Compound 27], the EC50 is no more than 100 nM.

Turning to `Nc1ncc(C#Cc2cncc(-n3cc4c(n3)C(c3ccccc3)CC4)n2)cn1` (stereo not drawn) [Compound 29], the EC50 is no more than 100 nM.

Take `Cc1cncc(C#Cc2cccc(-n3cc4c(n3)C(c3ccccc3)CC4)c2)c1` (stereo not drawn) [Compound 34, 2-(3-((5-methylpyridin-3-yl)ethynyl)phenyl)-6-phenyl-2,4,5,6-tetrahydrocyclopenta[c]pyrazole]: the EC50 was no more than 100 nM.

For the compound `Cc1ccc(C#Cc2cccc(-n3cc4c(n3)C(c3ccccc3)CC4)c2)cn1` (stereo not drawn) [Compound 35, 2-(3-((6-methylpyridin-3-yl)ethynyl)phenyl)-6-phenyl-2,4,5,6-tetrahydrocyclopenta[c]pyrazole], the EC50 is no more than 100 nM.

As for `Clc1ncc(C#Cc2cncc(-n3cc4c(n3)C(c3ccccc3)CC4)c2)cn1` (stereo not drawn) [Compound 41, 2-(5-((2-chloropyrimidin-5-yl)ethynyl)pyridin-3-yl)-6-phenyl-2,4,5,6-tetrahydrocyclopenta[c]pyrazole], the EC50 lay in the range of 100 to 1000 nM.

`Cc1c(C#Cc2cnc(N)nc2)cncc1-n1cc2c(n1)C(c1ccccc1)CC2` (stereo not drawn) [Compound 43, 5-((4-methyl-5-(6-phenyl-5,6-dihydrocyclopenta[c]pyrazol-2 (4H)-yl)pyridine-3-yl)ethynyl)pyrimidin-2-amine]: the EC50 was no more than 100 nM.

For `Nc1ncc(C#Cc2cncc(-n3cc4c(n3)[C@H](c3cccc(F)c3)CC4)c2)cn1` [Compound 46], the EC50 is no more than 100 nM.

Regarding `Nc1ncc(C#Cc2cncc(-n3cc4c(n3)[C@@H](c3cccc(F)c3)CC4)c2)cn1` [Compound 47, (R)-5-((5-(6-(3-fluorophenyl)-5,6-dihydrocyclopenta[c]pyrazol-2 (4H)-yl)pyridine-3-yl)ethynyl)pyrimidin-2-amine], the EC50 was no more than 100 nM.

Take `Nc1ncc(C#Cc2cncc(-n3cc4c(n3)C(c3cc(F)cc(F)c3)CC4)c2)cn1` (stereo not drawn) [Compound 48]: the EC50 was no more than 100 nM.

For the compound `Nc1ncc(C#Cc2cncc(-n3cc4c(n3)[C@@H](c3cc(F)cc(F)c3)CC4)c2)cn1` [Compound 49, (R)-5-((5-(6-(3,5-difluorophenyl)-5,6-dihydrocyclopenta[c]pyrazol-2 (4H)-yl)pyridin-3-yl)ethynyl)pyrimidin-2-amine], the EC50 was no more than 100 nM.

Turning to `Nc1ncc(C#Cc2cncc(-n3cc4c(n3)[C@H](c3cc(F)cc(F)c3)CC4)c2)cn1` [Compound 50, (S)-5-((5-(6-(3,5-difluorophenyl)-5,6-dihydrocyclopenta[c]pyrazol-2 (4H)-yl)pyridin-3-yl)ethynyl)pyrimidin-2-amine], the EC50 is no more than 100 nM.

As for `C(#Cc1cnc2cccnn12)c1cccc(-n2nc3c(n2)C(c2ccccc2)CC3)c1` (stereo not drawn) [Compound 53, 3-((3-(4-phenyl-5,6-dihydrocyclopenta[d][1,2,3]triazol-2 (4H)-yl)phenyl)ethynyl)imidazo[1,2-b]pyridazine], the EC50 was no more than 100 nM.

Turning to `Cn1c(-n2nc3c(n2)C(c2cncc(F)c2)CC3)cc(C#Cc2cnc(N)nc2)cc1=O` (stereo not drawn) [Compound 59, 4-((2-aminopyrimidin-5-yl)ethynyl)-6-(4-(5-fluoropyridin-3-yl)-5,6-dihydrocyclopenta[d][1,2,3]triazol-2 (4H)-yl)-1-methylpyridin-2 (1H)-one], the EC50 was no more than 100 nM.

In the case of `Nc1ncc(C#Cc2c[nH]c(=O)c(-n3nc4c(n3)C(c3ccccc3)CC4)c2)cn1` (stereo not drawn) [Compound 60, 5-((2-aminopyrimidin-5-yl)ethynyl)-3-(4-phenyl-5,6-dihydrocyclopenta[d][1,2,3]triazol-2 (4H)-yl)pyridine-2 (1H)-one], the EC50 was greater than 1000 nM.

Turning to `Cc1ncc(C#Cc2cnc(N)nc2)cc1-n1nc2c(n1)C(C1CCCCC1)CC2` (stereo not drawn) [Compound 64, 5-((5-(4-cyclohexyl-5,6-dihydrocyclopenta[d][1,2,3]triazol-2 (4H)-yl)-6-methylpyridin-3-yl)ethynyl)pyrimidin-2-amine], the EC50 is no more than 100 nM.
